Experimental data: patent US7612107B2, “Treatment and inhibition of disease conditions using flexible heteroarotinoids” (The Board of Regents of the University of Oklahoma, priority 2005, dated 2009)
Where two headings read alike, the source gives them in different places.

Legend:
Raldh2-/- embryos = conditions: for No. of −/− rescued / No. of −/− unrescued: E10.25; for Teratogenesis: mouse, in vivo, po
Protocol: Briefly, retinoids were dissolved in corn oil and administered orally to timed-pregnant Raldh2_/_mice at 12-h intervals on E7.25, E7.75, and E8.25. Dosages varied from 0.025 to 25 mg/kg. At E10.25, embryos were analyzed morphologically to determine whether Raldh2_/_embryos were rescued or whether wild-type embryos had suffered teratogenesis. Detection of embryonic RA was performed in situ in embryos carrying the RARE-lacZ RA-reporter gene by staining for beta-galactosidase activity for 10 h (45).
A mouse model that lacks retinaldehyde dehydrogenase (Raldh2) due to null mutations was used to test the ability of Flex-Hets to substitute for retinoic acid (RA) and induce birth defects. […] We examined the relative ability of all-trans-RA, 9-cis-RA, receptor-specific synthetic retinoids and retinoic acid receptor independent Flex-Hets to rescue the Raldh2_/_embryonic lethal phenotype.

[1] = test system: organotypic cultures of human ovarian cancer cell lines and primary cultures; test: Ovarian carcinoma organotypic cultures (TUNEL, histology); type: cell-based; conditions: 1 μM retinoid in media
Protocol: FIG. 17. Retinoid effects on ovarian carcinoma organotypic cultures. Organotypic cultures of OVCAR-3 (A, B, E, F, I and J), Caov-3 (C and G), SK-OV-3 (D and H), and O2 (K and L) were grown in the absence (−, top row and K) or presence (+, middle row and I, J and L) of retinoid HetA4 at a concentration of 1 μM in the media. All sections were stained with H&E except for […], which was stained with PAS to detect glycoproteins and glandular differentiation, and J, which was stained with the TUNEL assay to detect apoptosis. All magnifications are 40×.
To test our hypotheses, we evaluated the effects of clinically achievable concentrations of 4-HPR and Flex-Hets on growth, differentiation and apoptosis in ovarian tissue. A series of compounds with a variety of receptor activation profiles were evaluated. In order to evaluate therapeutic effects, we developed an organotypic culture model of ovarian tumors by growing established cell lines and primary cultures inside collagen gels. Monolayer cultures of cells are not accurate representations of in vivo tissue because they lack the types of interactions that cells have with other cells and with the extracellular matrix in vivo. These interactions are known to influence gene expression and thus the constitution and behavior of cells. In our organotypic model, the growth of tumor cells inside the collagen allows a representation of tumors that have invaded stromal tissue. In the presence of fibroblasts, established cell lines and primary cultures of ovarian cancer formed colonies inside the collagen, while normal or benign ovarian epithelial cells remained as single cells inside the collagen. Human ovarian cancer cell lines (OVCAR-3, Caov-3, SK-OV-3, A2780, UCI 101) and primary human cultures (borderline ovarian tumor (O1), serous papillary tumor (O2), benign ovarian cyst (O3)) were cultured inside and on top of a collagen gel seeded with 3T3 fibroblasts for one week. After further incubation in the presence or absence of 1 μM retinoid (media concentration) for 3, 7 or 14 days, cultures were fixed and sectioned for immunohistochemical analysis.
The TUNEL assay was used to evaluate apoptosis in fixed, paraffin embedded, cut sections of the treated and control cultures (FIG. 17). […] These two cellular outcomes appeared to be mutually exclusive.

OVCAR-3 xenograft tumors = test: OVCAR-3 xenograft tumor growth model; type: in vivo, mouse; conditions: 10 mg/kg/day by gavage, 5 days per week, 4 weeks
Protocol: Groups of 5 mice bearing OVCAR-3 xenografted tumors were gavaged daily with the indicated drugs in sesame oil (▪ closed square) or with sesame oil alone (∘ open circle). Tumor volumes were measured in 3 dimensions with calipers weekly. Each data point represents the average and standard error of the tumor volumes on the indicated treatment day relative to the tumor volume on day zero. Nu/nu mice were injected subcutaneously with one million OVCAR-3 cells and arbitrarily divided into five groups of six mice each. After three weeks of tumor growth, the animals were gavaged with sesame oil, 10 mg/kg/day 4-HPR, or the indicated Het five times per week for four weeks and the tumors were measured once per week. The tumor sizes were averaged and divided by the average size for each group on the day that treatment was initiated (day 0).
The OVCAR-3 cultures were maintained in RPMI media supplemented with 10% fetal bovine serum. All animal experimentation described in this manuscript was conducted in accord with accepted standards of humane animal care. Twenty-five female NU/NU CD-1 female mice (Charles Rivers Laboratories) were housed in a laminar flow room under sterile conditions at 83-85° F. The mice were quarantined for one week prior to the beginning of the study and were allowed access to autoclaved food (Purina 5001 mouse/rat sterilizable diet, St. Louis, Mo.) and water ad libitum. OVCAR-3 cells in log phase growth were harvested by trypsinization, resuspended in RPMI culture medium, and centrifuged at 3,000 rpm for 10 min. The pellets were resuspended in RPMI culture medium at a concentration of 7×10^6 cells/ml before implantation into mice. Animals were injected with 3.5×10^6 cells into the right scapular region with a 24-gauge needle/1 cc tuberculin syringe. Twenty-four hours after tumor implantation, animals were randomized into 5 groups of 5 animals each.
The Hets SHet50, SHetA2 and SHetA4 were synthesized and their receptor specificity determined as previously described (17,19). The 4-HPR compound was a gift from R.W. Johnson Pharmaceutical Research Institute, Raritan, N.J. All retinoids were dissolved in super refined sesame oil (Croda, Inc., Parsippany, N.J.) and stored at −80° C. Since the retinoids are light sensitive, all manipulations involving retinoids were performed under subdued lighting. […] Tumors were measured with calipers weekly, and tumor volumes were calculated using the formula: volume=length×width×height. Tumor growth was determined by the dividing the volume of the tumor at each weekly measurement by the volume on the first day of treatment. Animal weights and clinical signs of overall health status and cutaneous toxicities were recorded weekly.

dorsal skin = test: Topical irritancy in Skh hairless mice; type: in vivo
Protocol: Female Skh hairless mice, 6-8 weeks old, were treated topically on the dorsal skin for 4 days over a 2-log concentration dose range with various compounds. Retinoic acid receptor-Hets were evaluated in A, while retinoic acid receptor-independent Flex-Hets were evaluated in B. Daily flaking and abrasion scores were combined to calculate a single cutaneous toxicity score for each mouse. Each treatment group consisted of 4 mice, and group averages were used to plot cutaneous toxicity against doses of the compounds.
Topical irritancy was evaluated according to published procedures (29). Briefly, female Skh hairless mice, 6-8 weeks old, were treated topically on the dorsal skin for 4 days over a 2-log concentration dose range with various compounds. Daily flaking and abrasion scores were combined to calculate a single cutaneous toxicity score for each mouse. Each treatment group consists of 4 mice, and group averages are used to plot cutaneous toxicity against dose of the retinoid compound.

[2] = test system: human polycystic kidney disease cells; test: 3-D model of polycystic kidney disease, cyst formation; type: cell-based; conditions: 4 μM, 3 weeks
Protocol: FIG. 21. Effects of Flex-Hets on formation of cysts in cultured polycystic kidney disease cells. A primary culture of polycystic kidney cells were grown inside a mixture of collagen I and matrigel and treated with prostaglandin E2 to induce cyst formation. Parallel cultures were treated with 10 micromolar SHetA3 and SHetA4.
The 3-D model of the PKD was developed as described here. Single-cell suspensions of the PCKD cell lines was re-suspended in a 4° C. solution mixture containing rat tail collagen I (Collaborative Biomedical Products, Bedford, Mass.), matrigel (Becton Dickinson) and MEM. The suspension was poured into Falcon cell culture inserts with transparent membranes containing 0.4 μm pores (Becton Dickinson, Franklin Lakes, N.J.) and placed at 37° C. Treatment of cultures was initiated after 1 day of growth and replenished with medium once in every two days. Drugs (Flex-Hets at 4 μM Conc.) and hormones (PGE2 at 25 ng/ml) were administered into the medium surrounding the insert. Untreated control cultures were grown in the same conditions as that of the treated cultures. Drug treatment was carried out for 3 weeks before their effects on growth and inhibition were evaluated.

[3] = more potent than RA; cited from earlier work
[4] = topical, dorsal skin, 4 days, 2-log dose range

## CC(Cc1ccc(C(=O)O)cc1)c1ccc2c(c1)C(C)(C)CS2 (stereo not drawn) [SHet100]
Raldh2-/- embryos; 0.5 mg/kg
  Rescue of Raldh2−/− embryos (in words): typical rescue phenotype
  Teratogenesis: 0
Raldh2-/- embryos; Dose 0.025 mg/kg oral
  No. of −/− rescued: 0
  No. of −/− unrescued: 2
Raldh2-/- embryos; Dose 0.25 mg/kg oral
  No. of −/− rescued: 2
  No. of −/− unrescued: 0
Raldh2-/- embryos; Dose 0.5 mg/kg oral
  No. of −/− rescued: 6
  No. of −/− unrescued: 1
Raldh2-/- embryos; 0.025 mg/kg
  Teratogenesis: 0
Raldh2-/- embryos; 0.25 mg/kg
  Teratogenesis: 0
Raldh2-/- embryos; 2.5 mg/kg
  Teratogenesis: 11

## CCOC(=O)c1ccc(NC(=O)Nc2ccc3c(c2)C(C)(C)CC(C)(C)S3)cc1 [SHetA4]
[1]
  Induction of apoptosis (TUNEL) in organotypic cultures: Apoptosis was induced
OVCAR-3 xenograft tumors
  Growth of xenograft tumors versus sesame oil control: significantly inhibited the growth
Dorsal skin; mouse, in vivo
  Topical irritancy (cutaneous toxicity score): did not induce topical irritancy
[2]
  Differentiated phenotype (tubular structures): induced the formation of several branched tubular structures
[2]; PGE2 25 ng/ml
  Cyst formation: completely eliminated cyst formation

## CC1=C(/C=C/C(C)=C/C=C/C(C)=C/C(=O)O)C(C)(C)CCC1 [All-trans-RA]
Raldh2-/- embryos; Dose 1.0 mg/kg oral
  No. of −/− rescued: 0
  No. of −/− unrescued: 7
Raldh2-/- embryos; Dose 2.5 mg/kg oral
  No. of −/− rescued: 13
  No. of −/− unrescued: 1
Raldh2-/- embryos; 1 mg/kg
  Teratogenesis: 0
Raldh2-/- embryos; 2.5 mg/kg
  Teratogenesis: 0

## CC1=C(/C=C/C(C)=C/C=C/C(C)=C/C(=O)Nc2ccc(O)cc2)C(C)(C)CCC1 [4-HPR, reference compound]
[1]
  Induction of apoptosis (TUNEL) in organotypic cultures: Apoptosis was induced
OVCAR-3 xenograft tumors
  Growth of xenograft tumors versus sesame oil control: significantly inhibited the growth

## C/C(=C\c1ccc(C(=O)O)cc1)c1ccc2c(c1)C(C)(C)CCC2(C)C [TTNPB]
[3]
  Potency relative to RA: 10 fold

## CCOC(=O)c1ccc(OC(=O)c2ccc3c(c2)C(C)(C)CCN3C(C)C)cc1 [NHet17]
Dorsal skin; [4]
  Topical irritancy (cutaneous toxicity score): induced topical irritancy scores in a dose-responsive manner

## COC(=O)c1ccc(C(=O)Nc2ccc3c(c2)C(C)(C)CC(C)(C)S3)cc1 [SHet50, reference compound]
[1]
  Induction of apoptosis (TUNEL) in organotypic cultures: Apoptosis was induced
OVCAR-3 xenograft tumors
  Growth of xenograft tumors versus sesame oil control: significantly inhibited the growth

## CC1(C)CCOc2ccc(C(=O)Oc3ccc(C=NNC(N)=S)cc3)cc21 [OHet72]
Raldh2-/- embryos; 2.5 mg/kg
  Rescue of Raldh2−/− embryos (in words): no rescue
  Teratogenesis: 0
Raldh2-/- embryos; 10 or 25 mg/kg
  Rescue of Raldh2−/− embryos (in words): no rescue
Raldh2-/- embryos; Dose 2.5 mg/kg oral
  No. of −/− rescued: 0
  No. of −/− unrescued: 4
Raldh2-/- embryos; Dose 10 mg/kg oral
  No. of −/− rescued: 0
  No. of −/− unrescued: 3
Raldh2-/- embryos; Dose 25 mg/kg oral
  No. of −/− rescued: 0
  No. of −/− unrescued: 5
Raldh2-/- embryos; 10 mg/kg
  Teratogenesis: 0
Raldh2-/- embryos; 25 mg/kg
  Teratogenesis: 0
Dorsal skin; mouse, in vivo
  Topical irritancy (cutaneous toxicity score): did not induce topical irritancy

## CC(C=CC=C(C)c1ccc2c(c1)C(C)(C)CS2)=CC(=O)O [SHet65]
Dorsal skin; [4]
  Topical irritancy (cutaneous toxicity score): induced topical irritancy scores in a dose-responsive manner

## CC1=C(/C=C/C(C)=C\C=C\C(C)=C\C(=O)O)C(C)(C)CCC1 [9-cis-RA]
Raldh2-/- embryos; Dose 2.5 mg/kg oral
  No. of −/− rescued: 2
  No. of −/− unrescued: 8
Raldh2-/- embryos; Dose 10 mg/kg oral
  No. of −/− rescued: 6
  No. of −/− unrescued: 1
Raldh2-/- embryos; 2.5 mg/kg
  Teratogenesis: 0
Raldh2-/- embryos; 10 mg/kg
  Teratogenesis: 0
[1]
  Induction of apoptosis (TUNEL) in organotypic cultures: Apoptosis was induced
